Key:
[1] = Evaluation of a conversion rate to 2-acetylnaphtho[2,3-b]furan-4,9-dione in human plasma; type: in vitro ADME; conditions: Human plasma, 1 umol/L, 37° C., incubation time 120 min
Method: (§1) For test compounds, the decrease rate of the test compounds and the conversion rate thereof to 2-acetylnaphtho[2,3-b]furan-4,9-dione in human plasma, CD1 mouse plasma, and pH 7.4 phosphate buffer solution were measured.
(§2) Test compounds were incubated at the concentration of 1 umol/L in human plasma (cat. no. 12250210, COSMO BIO), CD1 mouse plasma (cat. no. AP3054, KAC), and phosphate buffer solution at 37° C., and removed at predetermined times (0, 5, 10, 30, 60, and 120 minutes). After protein-removing treatment was performed, they are analyzed with LC-MS. It should be noted that the protein-removing treatment used acetonitrile containing: 10% volume of 1 mol/L hydrochloric acid; 1% volume of 46% citric acid; and phenytoin as an internal standard.
(§3) The measurement condition of LC-MS is as described below. LC-MS condition column: Kinetex 2.6 u PFP 100 A 50×2.1 mm Column temperature: 40° C.
(§4) Mobile phase: A: 0.1% formic acid-containing water
(§5) • B: 0.1% formic acid-containing acetonitrile A/B(min): 95/5(0)→5/95(3)→5/95(4)→95/5(4.1)→95/5(6) Flow rate: 0.4 mL/min Detection: ESI (positive mode) Injection volume: 10 uL
In the same way as Example 6, the incubation time was set as 120 minutes later, and the conversion rate of each of various test compounds to 2-acetylnaphtho[2,3-b]furan-4,9-dione in human plasma, CD1 mouse plasma, and pH 7.4 phosphate buffer solution was measured.

[2] = Evaluation of a conversion rate to 2-acetylnaphtho[2,3-b]furan-4,9-dione in CD1 mouse plasma; type: in vitro ADME; conditions: CD1 mouse plasma, 1 umol/L, 37° C., incubation time 120 min
Method: as §1, §2, §3, §4, §5
Measurement values are calculated from the peak area ratio in LC-MS between an internal standard material, phenytoin and an active form, 2-acetylnaphtho[2,3-b]furan-4,9-dione, and are expressed in %.
In the same way as Example 6, the incubation time was set as 120 minutes later, and the conversion rate of each of various test compounds to 2-acetylnaphtho[2,3-b]furan-4,9-dione in human plasma, CD1 mouse plasma, and pH 7.4 phosphate buffer solution was measured. A series of the present compounds were confirmed to be converted to 2-acetylnaphtho[2,3-b]furan-4,9-dione in pH 7.4 phosphate buffer solution in addition to human plasma and CD1 mouse plasma. Therefore, a series of the test compounds of the present invention were confirmed to be converted to the activated form via a route other than an enzymatic conversion.

[3] = Evaluation of a conversion rate to 2-acetylnaphtho[2,3-b]furan-4,9-dione in pH 7.4 phosphate buffer solution; type: physicochemical; conditions: Phosphate buffer solution (pH 7.4), 1 umol/L, 37° C., incubation time 120 min
Summary of the method: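 Compounds at 1 umol/L were incubated at 37° C in human plasma, CD1 mouse plasma or pH 7.4 phosphate buffer, sampled up to 120 minutes, acid/acetonitrile-deproteinised and analysed by LC-MS (ESI positive). Conversion (%) derived from the peak area ratio of the active form to phenytoin internal standard.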

Solubility test = conditions: 50 mmol/L glycine buffer solution (pH 2.0), room temperature, 24 hours shaking
Method: A water-soluble prodrug was added into 50 mmol/L glycine buffer solution (pH 2.0). After shaking at room temperature for 24 hours, the mixture was filtered through a membrane filter, and then the filtrate was measured with HPLC.
The measurement condition of HPLC is as described below. HPLC condition column: Acquity UPLC BEH C18, 1.7 um, 50×2.1 mm
Mobile phase: A: 0.1% trifluoroacetic acid-containing water

SMILES	% Measurement value (conversion rate to 2-acetylnaphtho[2,3-b]furan-4,9-dione) [1] [%]	% Measurement value (conversion rate to 2-acetylnaphtho[2,3-b]furan-4,9-dione) [2] [%]	% Measurement value (conversion rate to 2-acetylnaphtho[2,3-b]furan-4,9-dione) [3] [%]	Solubility in pH 2.0 buffer solution (Solubility test) [mg/mL]
COC(=O)[C@@H](N)CNC(=O)Oc1c2ccccc2c(OC(=O)NC[C@H](N)C(=O)OC)c2oc(C(C)=O)cc12.Cl.Cl [Example 32]	81	74	46	>5.0
CC(=O)c1cc2c(OC(=O)NCCCCCNCC(=O)O)c3ccccc3c(OC(=O)NCCCCCNCC(=O)O)c2o1.Cl.Cl [Example 35]	78	70	38	>5.0
COC(=O)CNCCNC(=O)Oc1c2ccccc2c(OC(=O)NCCNCC(=O)OC)c2oc(C(C)=O)cc12.Cl.Cl [Example 36]	73	66	46	>5.0
CC(=O)c1cc2c(OC(=O)NCCCCCCN)c3ccccc3c(OC(=O)NCCCCCCN)c2o1.Cl.Cl [Example 37]	35	33	17	>5.0
CC(=O)c1cc2c(OC(=O)NCCCCCCCN)c3ccccc3c(OC(=O)NCCCCCCCN)c2o1.Cl.Cl [Example 38]	85	72	39	>5.0
CC(=O)c1cc2c(OC(=O)NCCCCCCCCN)c3ccccc3c(OC(=O)NCCCCCCCCN)c2o1.Cl.Cl [Example 39]	80	62	31	>5.0
CC(=O)c1cc2c(OC(=O)NCCCNCC(=O)O)c3ccccc3c(OC(=O)NCCCNCC(=O)O)c2o1.Cl.Cl [Example 40]	89	86	50	>5.0
CC(=O)c1cc2c(OC(=O)NCCNCC(=O)NCC(=O)O)c3ccccc3c(OC(=O)NCCNCC(=O)NCC(=O)O)c2o1.Cl.Cl [Example 41]	86	81	52	>5.0
CC(=O)c1cc2c(OC(=O)NCCNCC(=O)O)c3ccccc3c(O)c2o1.Cl [Example 71]	61	68	70	0.1
CC(=O)c1cc2c(OC(=O)NCCCCCN)c3ccccc3c(O)c2o1.Cl [Example 72]	53	42	38	2.4
CC(=O)c1cc2c(OC(=O)NCCCCCCCN)c3ccccc3c(O)c2o1.Cl [Example 73]	88	63	66	0.1
CC(=O)c1cc2c(OC(=O)NCCCCN)c3ccccc3c(O)c2o1.Cl [Example 74]	70	62	82	4.9

Source: US10800752B2, “Substituted naphtho[2,3-b]furans as water-soluble prodrugs for preventing and/or treating cancer” (BOSTON BIOMEDICAL, INC., priority 2015, dated 2020)
